The record followed here is article PMC6009892, “A novel series of pyrazole-platinum(II) complexes as potential anti-cancer agents that induce cell cycle arrest and apoptosis in breast cancer cells” (Journal of Enzyme Inhibition and Medicinal Chemistry, 2018).

The IC50 is the midpoint of a concentration-inhibition curve.

Where two headings read alike, the source gives them in different places.

Type in all cases: cell-based, human
In assay [1] the test system is caspase-9 in MCF-7 breast cancer cells. Description: FLICA caspase-9 activity, flow cytometry, MCF-7. The conditions noted are these: MCF-7, 20 μM, 24 h. On the procedure:
(§1) Caspase-9 activity was measured using the FLICA Caspase 9 Assay Kit (ImmunoChemistry Technologies, Bloomington, MN, USA), according to the manufacturer’s instructions. Briefly, cultured MCF-7 and MDA-MB-231 breast cancer cells (1 × 10^6) were washed with cold PBS twice and re-suspended in buffer. We added 5 µl of diluted FLICA reagent and 2 µl of Hoechst 33342 to 93 µl of cell suspension and mixed by pipetting. The cells were incubated for 60 min at 37°C. After incubation, the cells were washed twice in 400 µl of apoptosis wash buffer and centrifuged at 300 × g. After the last wash, we re-suspended cells in 100 µl of apoptosis wash buffer supplemented with 10 µg/ml PI. Analysis was performed using the BD FACSCanto II flow cytometer, and the results were analysed with FACSDiva software (both from BD Biosciences Systems, San Jose, CA).
In general terms: A flow cytometer gives signals particle by particle.

The test system of assay [2] is MDA-MB-231 breast cancer cells. Description: DNA fragmentation TUNEL assay, MDA-MB-231. The following applies: MDA-MB-231, 20 μM, 24 h. On the procedure:
(§2) DNA fragmentation associated with apoptosis was examined by the terminal deoxynucleotidyltransferase (TdT)- mediated dUTP nick end labeling (TUNEL) method using a commercial assay kit (APO-Direct Kit; BD Pharmingen, San Diego, CA). After treatment, the cells were fixed with 1% paraformaldehyde in PBS (4°C, 30 min), washed in PBS, and permeabilised with ice-cold 70% ethanol. The APO-Direct Kit TUNEL assay was performed as described by the manufacturer. Briefly, the fixed cells were washed twice using the kit wash buffer, and after centrifugation the supernatant was discarded. The DNA labeling solution (containing TdT enzyme and FITC-dUTP) was added to the cell pellet, and the re-suspended mixture was incubated for 1 h at 37°C with occasional shaking. At the end of incubation time, rinse buffer was added, and after centrifugation the supernatant was discarded. We repeated the cell rinsing with rinse buffer, and then suspended the cell pellet in PI/RNase staining buffer. Cells were incubated at room temperature for 30 min and immediately analysed in a BD FACSCanto II flow cytometer. In total, 10,000 events were collected per test sample. The results were analysed with FACSDiva software (both from BD Biosciences Systems, San Jose, CA). The percentage of cells with distinctive apoptotic DNA strand breaks and distinguished by green fluorescent emission was calculated.

The subject of assay [3] is caspase-3 in MDA-MB-231 breast cancer cells. Description: FLICA caspase-3 activity, flow cytometry, MDA-MB-231. The conditions noted are these: MDA-MB-231, 20 μM, 24 h. How it is done: as §1, with “Caspase-3 activity was” for “Caspase-9 activity was”, “FLICA Caspase 3 Assay Kit” for “FLICA Caspase 9 Assay Kit”, “Briefly, cultured MDA-MB-231 breast” for “Briefly, cultured MCF-7 and MDA-MB-231 breast”, “we re-suspended the cells in” for “we re-suspended cells in”

Another assay has as its system fibroblast cells. Description: MTT cell viability assay, fibroblasts. The conditions noted are these: 5-50 μM, read-out: IC50 (cell viability, MTT). How it is done: (§3) MCF-7, MDA-MB-231 (both human breast cancer cell lines), and fibroblast cells were obtained from American Type Culture Collection (ATCC, Manassas, VA, USA). DMEM and FBS used in a cell culture were from Gibco (USA). Glutamine, penicillin, and streptomycin were obtained from Quality Biologicals Inc. (USA). DMEM media was blended with 50 units/ml of penicillin, 50 μg/ml of streptomycin, 10% of FBS. All cell lines were cultured in 5% CO2 and fully humidified at 37 °C. Cells were cultured in Costar flasks and sub-confluent cells were detached with 0.05% trypsin and 0.02% ethylenediaminetetraacetic acid in calcium-free phosphate-buffered saline (PBS), counted in hemocytometers, and plated at 5 × 10^5 cells/well of six-well plates (Thermo Scientific, New York, NY, USA) in 2 ml of growth medium (DMEM without phenol red with 10% CPSR1). Cells reached about 80% of confluency at day 2, and in most cases such cells were used for the assays.
(§4) The viability of cultured cells was decided through assaying the reduction of MTT to formazan. In brief, MCF-7, MDA-MB-231, and fibroblast cells line were seeded at an initial density of 1 × 10^5 cells per well. Then, the cells were incubated at 37 °C for 24 h. Subsequently, cultured cells were treated with a medium containing concentrations (5, 10, 20, 30, 40, and 50 μM) of PtPz1–PtPz6 for 24 h and 48 h. After the incubation period, MTT was added into all wells in the final concentration of 0.5 mg/ml. After that, the cells were incubated at 37 °C for 4 h. Then, by removing the medium, 200 μl of DMSO was added to all wells. As a result, insoluble formazan was dissolved in DMSO (0.5%). At 570 nm (630 nm as a reference), the absorbance was measured in an Evolution 201 reader (Thermo Scientific, Waltham, MA).
For orientation: Tetrazolium assays rely on reduction of a dye to a coloured formazan, in cell work by metabolically active cells.

Assay [4] concerns MCF-7 breast cancer cells. Description: DNA fragmentation TUNEL assay, MCF-7. The conditions noted are these: MCF-7, 20 μM, 24 h; control 4.0%. How it is done: as §2
For assay [5], the system named is MCF-7 breast cancer cells. Description: MTT cell viability assay, MCF-7. The following applies: 5-50 μM, read-out: IC50 (cell viability, MTT). How it is done:
as §3, §4

The subject of assay [6] is MDA-MB-231 breast cancer cells. Description: MTT cell viability assay, MDA-MB-231. The conditions noted are these: 5-50 μM, read-out: IC50 (cell viability, MTT). How it is done: as §3, §4
Assay [7] has as its system caspase-9 in MDA-MB-231 breast cancer cells. The assay is described as follows: FLICA caspase-9 activity, flow cytometry, MDA-MB-231. The conditions noted are these: MDA-MB-231, 20 μM, 24 h. How it is done: as §1
The subject of assay [8] is caspase-8 in MCF-7 breast cancer cells. The assay is described as follows: FLICA caspase-8 activity, flow cytometry, MCF-7. The conditions noted are these: MCF-7, 20 μM, 24 h. How it is done:
as §1, with “Caspase-8 activity was” for “Caspase-9 activity was”, “FLICA Caspase 8 Assay Kit” for “FLICA Caspase 9 Assay Kit”, “we re-suspended the cells in” for “we re-suspended cells in”

The subject of assay [9] is caspase-8 in MDA-MB-231 breast cancer cells. Description: FLICA caspase-8 activity, flow cytometry, MDA-MB-231. The following applies: MDA-MB-231, 20 μM, 24 h. How it is done:
as §1, with “Caspase-8 activity was” for “Caspase-9 activity was”, “FLICA Caspase 8 Assay Kit” for “FLICA Caspase 9 Assay Kit”, “we re-suspended the cells in” for “we re-suspended cells in”

Regarding “[Pt2(pyrazole)4(berenil)2]·4HCl·2H2O [PtPz4]”, the “percent of cells with active caspase-9” value in assay [1] is 29.7%; in assay [7], 29.6%. Besides, the “percent of TUNEL positive cells” value was determined as 22.9% in [2] and 29.4% in [4]. For the same substance, in assay [3], the “percent of cells with active caspase-3” value is reported as 14.8%. In addition, the IC50 is greater than 50 µM in the assay with fibroblast cells (24 h incubation); 46 ± 2 µM in the assay with fibroblast cells (48 h incubation); 32 ± 2 µM in [5] (MCF-7, 24 h incubation); 29 ± 2 µM in assay [5] (MCF-7, 48 h incubation); 33 ± 3 µM in assay [6] (MDA-MB-231, 24 h incubation); 29 ± 2 µM in [6] (MDA-MB-231, 48 h incubation). In addition, the entries for the “percent of cells with active caspase-8” value in assay [8] and in [9] were 30.9% and 29.5%, respectively.
